In PMC5806266, “Molecular, biochemical and kinetic analysis of a novel, thermostable lipase (LipSm) from Stenotrophomonas maltophilia Psi-1, the first member of a new bacterial lipase family (XVIII)” (Journal of Biological Research, 2018):

System: T1, LipSm
T1 construct: mature form (371 residues, signal peptide cleaved in E. coli BL21(DE3) after LAA), C-terminal 8 extra residues incl; ORF 400 residues
Assay: initial velocities, 4-nitrophenol release at […] nm
Format: biochemical, Stenotrophomonas maltophilia
Conditions: 100 mM Tris-HCl pH 8.0, 1% w/v Triton X-100, 5% v/v DMSO, 40 °C

Compound: CC(=O)Oc1ccc([N+](=O)[O-])cc1 [Ac-4-NPh, 4-nitrophenyl acetate]
- Km (850 nM enzyme): 473 µM

Compound: CCCC(=O)Oc1ccc([N+](=O)[O-])cc1 [Bu-4-NPh, 4-nitrophenyl butyrate]
- Km (850 nM enzyme, limited substrate solubility): 1930 µM

Compound: CCCCCCCCCCCC(=O)Oc1ccc([N+](=O)[O-])cc1 [La-4-NPh, 4-nitrophenyl laurate]
- Km (2200 nM enzyme, limited substrate solubility): 349 µM
